Legend:
[1] = tested on: BxPc-3 cells; test: BxPc-3 cell growth inhibition test (MTT assay); type: cell-based, human; details: growth inhibition at 2000 nM, 70 h
Protocol: BxPc-3 Cell Growth Inhibition Test (MTT Assay)
Cell strains: BxPC-3 (human pancreatic cancer cell strains); MTT; antitumor compounds; DMSO.
(§1) II. Reagents and Consumable Materials
(§2) Culture medium: 90% RPMI-1640+10% FBS; Pancreatin (0.25% (w/v) solution was formulated with PBS, 0.53 mM of EDTA was added in the formulation); PBS; 96-well culture plate.
(§3) 1. A plate (10 cm) of cells in logarithmic growth phase that were normally cultured was collected;
(§4) 2. The culture solution was sucked out. The plate was washed with 5 mL of PBS once or twice;
(§5) 3. PBS was sucked out. 1.5 mL of 0.25% pancreatin was added to infiltrate the cells;
4. The culture plate was placed in an incubator. Digestion was carried out for about 8 min at 37° C.;
5. 4.5 mL of complete culture solution was added to the culture plate to stop the digestion. The cells were carefully scoured with micropipette (1 ml) to give a uniform cell suspension. The suspension was implanted into a 96-well cell culture disc by 5000 cells/100 μL per well. The culture plate was incubated overnight under 5% CO2 at 37° C. In day 2, 100 μL of culture solution comprising a compound was added in each well. The plate was further incubated for 70 h under 5% CO2 at 37° C.;
(§6) 6. The culture solution was sucked out;
(§7) 7. 100 μL of serum-free culture solution containing 0.5 mg/mL MTT was added in each well. The plate was incubated for 3 h;
(§8) 8. The culture solution was carefully sucked out;
(§9) 9. 100 μL of DMSO was added into each well and vibrated to dissolve;
(§10) 10. OD values were determined at 490 nM.
(§11) IV. Results and Treatments
(§12) 1. Calculation of Relative Inhibition Ratio The inhibition ratio of a compound on cell growth=(PC−n)/(PC−NC)×100%
(§13) PC: OD values of cells after normal growth in control wells without a compound;
(§14) n: OD values of cells after growth in test wells with a compound;
(§15) NC: Background OD values of blank wells without a compound and cells.

[2] = tested on: 22Rv1 cells; test: 22Rv1 cell growth inhibition test (SRB assay); type: cell-based, human; details: growth inhibition at 222 nM, 73 h
Protocol: 22Rv1 Cell Growth Inhibition Test (SRB Assay)
Cell strains: 22Rv1 (human prostate cancer cell strains); SRB: 0.4% (w/v) working solution was formulated with 1% glacial acetic acid, reserved at 4° C.; antitumor compounds; DMSO.
as §1, §2, §3, §4
(§16) 3. 1.5 mL of 0.25% pancreatin was added to the plate to infiltrate the cells;
(§17) 4. The pancreatin was sucked out. The culture plate was placed in an incubator. Digestion was carried out for about 3 min at 37° C.;
5. 4 mL of complete culture solution was added to the culture plate to stop the digestion. The cells were carefully scoured with micropipette (1 ml) to give a uniform single cell suspension. The suspension was implanted into a 96-well cell culture plate by 7000 cells/100 μL per well. The culture plate was incubated overnight under 5% CO2 at 37° C. In day 2, 100 μL of culture solution comprising a compound was added in each well. The plate was further incubated for 73 h under 5% CO2 at 37° C.;
(§18) 6. The culture solution was sucked out. 100 uL of TCA fixed cells which were diluted to 10% were added to each well. The plate was kept in a refrigerator for 1 h at 4° C.
(§19) 7. TCA stationary liquid was sucked out. Each well was washed with 150 μL of ddH2O five times;
(§20) 8. After the stationary liquid was cleansed, the plate was dried in the air at the room temperature;
(§21) 9. 60 μL of SRB staining solution was added in each well. The well was stained for 15 min at the room temperature;
(§22) 10. The SRB staining solution was sucked out. Each well was washed with 150 μL of 1% glacial acetic acid five times;
(§23) 11. After the SRB staining solution was cleansed, the plate was dried in the air at the room temperature;
(§24) 12. 100 μL of 10 mM Tris was added in each well. The plate was vibrated to dissolve out SRB;
(§25) 13. OD values were determined at 570 nM.
as §11, §12, §13, §14, §15

[3] = tested on: NCI-H446 cells; test: NCI-H446 cell growth inhibition test (MTT assay); type: cell-based, human; details: growth inhibition at 222 nM, 70 h
Protocol: NCI-H446 Cell Growth Inhibition Test (MTT Assay)
Cell strains: NCI-H446 (human small cell lung cancer cell strains); MTT; antitumor compounds; DMSO.
as §1, §2, §3, §4, §5
4. The culture plate was placed in an incubator. Digestion was carried out for about 3 min at 37° C.;
5. 3 mL of complete culture solution was added to the culture plate to stop the digestion. The cells were carefully scoured with micropipette (1 ml) to give a uniform cell suspension. The suspension was implanted into a 96-well cell culture disc by 4000 cells/100 μL per well. The culture plate was incubated overnight under 5% CO2 at 37° C. In day 2, 100 μL of culture solution comprising a compound was added in each well. The plate was further incubated for 70 h under 5% CO2 at 37° C.;
as §6, §7, §8, §9, §10, §11, §12, §13, §14, §15

[4] = tested on: SK-OV-3 cells; test: SK-OV-3 cell growth inhibition test (MTT assay); type: cell-based, human; details: growth inhibition at 667 nM, 69 h
Protocol: SK-OV-3 Cell Growth Inhibition Test (MTT Assay)
Cell strains: SK-OV-3 (human ovarian cancer cell strains); MTT; antitumor compounds; DMSO.
as §1
Culture medium: 90% McCoy's 5A+10% FBS; Pancreatin (0.25% (w/v) solution was formulated with PBS, 0.53 mM of EDTA was added in the formulation); PBS; 96-well culture plate.
as §3, §4, §5
4. The pancreatin was sucked out. The culture plate was placed in an incubator. Digestion was carried out for about 5 min at 37° C.;
5. 4.5 mL of complete culture solution was added to the culture plate to stop the digestion. The cells were carefully scoured with micropipette (1 ml) to give a uniform cell suspension. The suspension was implanted into a 96-well cell culture disc by 4000 cells/100 μL per well. The culture plate was incubated overnight under 5% CO2 at 37° C. In day 2, 100 μL of culture solution comprising a compound was added in each well. The plate was further incubated for 69 h under 5% CO2 at 37° C.;
as §6, §7, §8
9. 100 μL of DMSO was added in each well and vibrated to dissolve;
as §10, §11, §12, §13, §14, §15

[5] = tested on: MDA-MB-453 cells; test: MDA-MB-453 cell growth inhibition test (SRB assay); type: cell-based, human; details: growth inhibition at 2000 nM, 69.5 h
Protocol: MDA-MB-453 Cell Growth Inhibition Test (SRB Assay)
Cell strains: MDA-MB-453 (human breast cancer cell strains); SRB: 0.4% (w/v) working solution was formulated with 1% glacial acetic acid, reserved at 4° C.; antitumor compounds; DMSO.
as §1
Culture medium: 90% L15+10% FBS; pancreatin (0.25% (w/v) solution was formulated with PBS, 0.53 mM of EDTA was added in the formulation); PBS; 96-well culture plate.
as §3, §4, §16, §17
5. 4 mL of complete culture solution was added to the culture plate to stop the digestion. The cells were carefully scoured with micropipette (1 ml) to give a uniform single cell suspension. The suspension was implanted into a 96-well cell culture plate by 7000 cells/100 μL per well. The culture plate was incubated overnight under 5% CO2 at 37° C. In day 2, 100 μL of culture solution comprising a compound was added in each well.
The plate was further incubated for 69.5 h under 5% CO2 at 37° C.;
as §18, §19, §20, §21, §22, §23, §24, §25, §11, §12, §13, §14, §15

[6] = Solubility of the compound in water; type: physicochemical

COc1cccc2c1C(=O)c1c(O)c3c(c(O)c1C2=O)CC(O)(C(=O)COC(=O)CCC(N)=O)CC3OC1CC(n2cccc2)C(O)C(C)O1 (stereo not shown) [Example 66]
Inhibition Ratio (%) [1]: 83.1% | Inhibition Ratio (%) [2]: 59% | Inhibition Ratio (%) [3]: 56.2% | Inhibition Ratio (%) [4]: 66.5% | Inhibition Ratio (%) [5]: 73.9%

CC(=O)O.COc1cccc2c1C(=O)c1c(O)c3c(c(O)c1C2=O)CC(O)(C(=O)COC(=O)CCC(=O)NCCOCCN(C)C)CC3O[C@H]1C[C@H](n2cccc2)[C@H](O)[C@H](C)O1 (stereo partly drawn) [Example 76, 10-((3′-(pyrrol-1-yl)-2′,3′,6′-trideoxy-alphal-l-lyxo-hexylpyranyl)oxy)-7,8,9,10-tetrahydro-6,8,11-trihydroxy-13-oxo-14-(4-(2-(2-(dimethylamino)ethoxy)ethylamino)-4-oxo-butyrato)-1-methoxy-5,12-naphthalenedione acetate]
Inhibition Ratio (%) [1]: 77.1% | Inhibition Ratio (%) [2]: 49.2% | Inhibition Ratio (%) [3]: 46% | solubility of the compound in water [6]: more than 9 mg/ml | Inhibition Ratio (%) [4]: 46.4% | Inhibition Ratio (%) [5]: 62.7%

CC(=O)O.COc1cccc2c1C(=O)c1c(O)c3c(c(O)c1C2=O)CC(O)(C(=O)COC(=O)CCC(=O)NCCCN1CCOCC1)CC3O[C@H]1C[C@H](n2cccc2)[C@H](O)[C@H](C)O1 (stereo partly drawn) [Example 78, 10-((3′-(pyrrol-1-yl)-2′,3′,6′-trideoxy-alphal-l-lyxo-hexylpyranyl)oxy)-7,8,9,10-tetrahydro-6,8,11-trihydroxy-13-oxo-14-(4-((3-(morpholin-1-yl)propyl)amino)-4-oxo-butyrato)-1-methoxy-5,12-naphthalenedione acetate]
solubility of the compound in water [6]: more than 22 mg/ml

CC(=O)O.COc1cccc2c1C(=O)c1c(O)c3c(c(O)c1C2=O)CC(O)(C(=O)COC(=O)CCC(=O)NN1CCN(C)CC1)CC3O[C@H]1C[C@H](n2cccc2)[C@H](O)[C@H](C)O1 (stereo partly shown) [Example 79]
solubility of the compound in water [6]: more than 5 mg/ml

CC(=O)O.CCN1CCN(C(=O)CCC(=O)OCC(=O)C2(O)Cc3c(O)c4c(c(O)c3C(O[C@H]3C[C@H](n5cccc5)[C@H](O)[C@H](C)O3)C2)C(=O)c2c(OC)cccc2C4=O)CC1 (stereo partly drawn) [Example 80, 10-((3′-(pyrrol-1-yl)-2′,3′,6′-trideoxy-alphal-l-lyxo-hexylpyranyl)oxy)-7,8,9,10-tetrahydro-6,8,11-trihydroxy-13-oxo-14-(4-(4-ethylpiperazin-1-yl)-4-oxo-butyrato)-1-methoxy-5,12-naphthalenedione acetate]
solubility of the compound in water [6]: more than 11 mg/ml

CC(=O)O.COc1cccc2c1C(=O)c1c(O)c3c(c(O)c1C2=O)CC(O)(C(=O)COC(=O)CCC(=O)NCc1ccncc1)CC3O[C@H]1C[C@H](n2cccc2)[C@H](O)[C@H](C)O1 (stereo partly shown) [Example 82]
solubility of the compound in water [6]: more than 6 mg/ml

CC(=O)O.COc1cccc2c1C(=O)c1c(O)c3c(c(O)c1C2=O)CC(O)(C(=O)COC(=O)CCC(=O)NCc1cccnc1)CC3O[C@H]1C[C@H](n2cccc2)[C@H](O)[C@H](C)O1 (stereo partly shown) [Example 83]
solubility of the compound in water [6]: more than 1 mg/ml

CC(=O)O.COc1cccc2c1C(=O)c1c(O)c3c(c(O)c1C2=O)CC(O)(C(=O)COC(=O)CCC(=O)NCCc1ccccn1)CC3O[C@H]1C[C@H](n2cccc2)[C@H](O)[C@H](C)O1 (stereo partly shown) [Example 84]
solubility of the compound in water [6]: more than 12 mg/ml

CC(=O)O.COc1cccc2c1C(=O)c1c(O)c3c(c(O)c1C2=O)CC(O)(C(=O)COC(=O)CCC(=O)NCCc1cccnc1)CC3O[C@H]1C[C@H](n2cccc2)[C@H](O)[C@H](C)O1 (stereo partly shown) [Example 85]
solubility of the compound in water [6]: more than 11 mg/ml

CC(=O)O.COc1cccc2c1C(=O)c1c(O)c3c(c(O)c1C2=O)CC(O)(C(=O)COC(=O)CCC(=O)NCCc1ccncc1)CC3O[C@H]1C[C@H](n2cccc2)[C@H](O)[C@H](C)O1 (stereo partly shown) [Example 86]
solubility of the compound in water [6]: more than 3 mg/ml

CC(=O)O.COc1cccc2c1C(=O)c1c(O)c3c(c(O)c1C2=O)CC(O)(C(=O)COC(=O)CCC(=O)N1CCN(CCCN(C)C)CC1)CC3O[C@H]1C[C@H](n2cccc2)[C@H](O)[C@H](C)O1 (stereo partly drawn) [Example 87, 10-((3′-(pyrrol-1-yl)-2′,3′,6′-trideoxy-alphal-l-lyxo-hexylpyranyl)oxy)-7,8,9,10-tetrahydro-6,8,11-trihydroxy-13-oxo-14-(4-(4-(3-(dimethylamino)propyl)piperazin-1-yl)-4-oxo-butyrato)-1-methoxy-5,12-naphthalenedione acetate]
solubility of the compound in water [6]: more than 16 mg/ml

COc1cccc2c1C(=O)c1c(O)c3c(c(O)c1C2=O)CC(O)(C(=O)COC(=O)CCC(=O)NS(C)(=O)=O)CC3OC1CC(n2cccc2)C(O)C(C)O1 (stereo not shown) [Example 94]
Inhibition Ratio (%) [1]: 84.9% | Inhibition Ratio (%) [2]: 60.7% | Inhibition Ratio (%) [3]: 48.4% | Inhibition Ratio (%) [4]: 71.4% | Inhibition Ratio (%) [5]: 75.8%
